Results: US20160346255A1, “METHODS, AGENTS AND COMPOSITIONS FOR TREATMENT OF INFLAMMATORY CONDITIONS” (Betanien Hospital, priority 2014, published 2016)
Non-standard residues stand in square brackets, D forms with d. Residues, ends and D or L forms follow the SMILES beside them. *: point of attachment. dPhe(4-NHCONH2) = NC(=O)Nc1ccc(C[C@@H](N)C(=O)O)cc1; Dihydroorotyl(S) = O=C1C[C@@H](C(=O)*)NC(=O)N1; dPhe(4-Cl) = N[C@H](Cc1ccc(Cl)cc1)C(=O)O; Phe(4-NH2) = Nc1ccc(C[C@H](N)C(=O)O)cc1; d2Nal = N[C@H](Cc1ccc2ccccc2c1)C(=O)O; Lys(iPr) = CC(C)NCCCC[C@H](N)C(=O)O; d3Pal = N[C@H](Cc1cccnc1)C(=O)O

How the values were obtained:
Assay type in all cases: in vivo, human
[1] = test system: Patients with Rheumatoid Arthritis; assay: Rheumatoid arthritis patients treated with degarelix: clinical variables
Text: Examples of Treating Patients with Rheumatoid Arthritis with a GnRH Antagonist [table] […] Examples of Patients with Continued RA Improvement Over Several Weeks Despite Stably Low Levels of LH

[2] = test system: patients 1 and 2 (rheumatoid arthritis); assay: Hip bone mineral density in patients taking a GnRH antagonist
Text: However, our data indicates the opposite.

[3] = test system: patients with risk factors for cardiovascular disease; assay: Cardiovascular disease risk factors in patients taking degarelix; details: for Blood pressure: baseline 151/90; for Fasting glucose (4.0-6.0): 8.9 in April 2014; for HDL (1.0-2.7 mmol/L): Patient 7, baseline 0.68
Text: In our patient group who were offered degarelix, some patients had risk factors for cardiovascular disease, metabolic syndrome, lipidemia or hypoalphalipoproteinemia (low HDL). None of these patients had recently started medications prior to the GnRH antagonist that could explain the changes in blood pressure, HbA1c, fasting glucose or lipids. See Example 1 for patient information.
Patient 1 with metabolic syndrome fulfilling 3 of 5 metabolic risk factors (large waistline >35 inches, high blood pressure and high fasting glucose). […] High HbA1c, contributes to CVD (normal reference range 4.3-6.1%) At baseline 6.4%, high. By 2 weeks HbA1c had normalized to 6.1%. This continues to be normal, and at 8 months is 5.7%. Their fasting glucose was 6.6 mmol/L in September 2014, by October 2014 this was reduced to 6.3 mmol/L. • 2. High blood pressure, contributes to CVD at baseline 151/90 (measured at several times prior to baseline with repeatedly high blood pressure). Blood pressure by 6 months 120/71, and this continues to be normal. At their last check up at 8 months, their blood pressure was 118/78. • 3. No other abnormalities at baseline for assessment
Patient 4 • High HbA1c, contributes to CVD (normal reference range 4.3-6.1%). At baseline the HbA1c was 6.9%, high. By 1 month the HbA1c had reduced to 6.6, by 2 months 6.4, and by 4 months 6.2, and by 12 months it was normalized to 5.9. Their hospital records from a nearby hospital stated that their fasting glucose was high at 8.5 mmol/L (reference range 4.0-6.0) in December 2013, and by April 2014 this was higher at 8.9. They asked the patient's family doctor to initiate treatment due to the development of diabetes type II. Their fasting glucose had reduced to 6.6 mmol/L by 3 months after starting degarelix, and by 4 months has now normalised to 6.0 mmol/L. No other abnormalities baseline for assessment
Patient 7 • 1. Low HDL, contributes to CVD (normal reference range 1.0-2.7 mmol/L). Mora et al. investigated the link between cholesterol and cardiovascular events in women and found baseline HDL level was consistently and inversely associated with incident coronary and CVD events. A low HDL cholesterol level is thought to accelerate the development of atherosclerosis because of impaired reverse cholesterol transport and possibly because of the absence of other protective effects of HDL, such as decreased oxidation of other lipoproteins. • They had low HDL at baseline 0.68 mmol/L in September 2014. They received their loading dose of degarelix 240 mg s.c. in September 2014. By 1 week, their HDL level had increased to 0.73, and by 2 weeks it continued to increase towards normal at 0.75. By 3 weeks it had normalized to 1.13 mmol/L and at 4 weeks is normal at 1.19 mmol/L. • 2. No other abnormalities at baseline for assessment

[4] = test system: Patient with Rheumatoid Arthritis; assay: Rheumatoid arthritis patient treated with degarelix 40 mg weekly; details: 240 mg loading
Procedure: • person with seropositive rheumatoid arthritis with disease duration of 22 years. • Fulfilled ACR 2010 classification criteria for rheumatoid arthritis.
• Had tried most therapies available (for example: Humira, Remicade, Enbrel, Actemra, several disease modifying anti-rheumatic drugs), previously without effect or intolerable side effects. • Offered experimental GnRH antagonist therapy, degarelix 40 mg every week with 240 mg loading dose at baseline.

[5] = Patient 2, 15 weeks, baseline 17
[6] = Patient 2, 15 weeks, baseline 90

SMILES: CC(=O)N[C@H](Cc1ccc2ccccc2c1)C(=O)N[C@H](Cc1ccc(Cl)cc1)C(=O)N[C@H](Cc1cccnc1)C(=O)N[C@@H](CO)C(=O)N[C@@H](Cc1ccc(NC(=O)[C@@H]2CC(=O)NC(=O)N2)cc1)C(=O)N[C@H](Cc1ccc(NC(N)=O)cc1)C(=O)N[C@@H](CC(C)C)C(=O)N[C@@H](CCCCNC(C)C)C(=O)N1CCC[C@H]1C(=O)N[C@H](C)C(N)=O [degarelix] (Ac-[d2Nal][dPhe(4-Cl)][d3Pal]S[Phe(4-NH2)](Dihydroorotyl(S))[dPhe(4-NHCONH2)]L[Lys(iPr)]P[dA]-NH2)
- Function score (Good <1), final ([1]; Patient 1, 28 weeks, baseline 1.25): 1.25, 0
- Morning stiffness, final ([1]; Patient 1, 28 weeks, baseline 2.5): 2.5, 0 hrs
- Swollen joint count assessed with ultrasound, final ([1]; Patient 1, 28 weeks, baseline 6): 6, 0
- Tender joint, final ([1]; Patient 1, 28 weeks, baseline 9): 9, 0
- Patient own assessment (0-100), final ([1]; Patient 1, 28 weeks, baseline 81): 81, 0
- Physician assessment (0-100), final ([1]; Patient 1, 28 weeks, baseline 85): 85, 7
- ACR % Response ([1]; Patient 1, treatment duration 28 weeks): 90%
- Function score (Good <1), final ([1]; Patient 2, 15 weeks, baseline 2.0): 2.0, 0.25
- Morning stiffness, final ([1]; Patient 2, 15 weeks, baseline 9): 9, 1 hrs
- Swollen joint count assessed with ultrasound, final [1, 5]: 17, 2
- Tender joint, final [1, 5]: 17, 3
- Patient own assessment (0-100), final [1, 6]: 90, 35
- Physician assessment (0-100), final [1, 6]: 90, 40
- ACR % Response ([1]; Patient 2, treatment duration 15 weeks): 60%
- ACR % Response ([1]; Patient 3, 4 wks): 30%
- ACR % Response ([1]; Patient 3, 8 wks): 40%
- Function score (Good <1), final ([1]; Patient 3, 12 weeks, baseline 1.75): 1.75, 0.63
- Morning stiffness, final ([1]; Patient 3, 12 weeks, baseline 7): 7, ½
- Swollen joint count assessed with ultrasound, final ([1]; Patient 3, 12 weeks, baseline 23): 23, 4
- Tender joint, final ([1]; Patient 3, 12 weeks, baseline 26): 26, 11
- Patient own assessment (0-100), final ([1]; Patient 3, 12 weeks, baseline 50): 50, 30
- Physician assessment (0-100), final ([1]; Patient 3, 12 weeks, baseline 90): 90, 30
- ACR % Response ([1]; Patient 3, 12 wks): 50%
- ACR % Response ([1]; Patient 3, treatment duration 12 weeks): 50%
- ACR % Response ([1]; Patient 4, 3½ wks): 20%
- Function score (Good <1), final ([1]; Patient 4, 9 weeks, baseline 0.88): 0.88, 0.38
- Morning stiffness, final ([1]; Patient 4, 9 weeks, baseline 7): 7, 3 hrs
- Swollen joint count assessed with ultrasound, final ([1]; Patient 4, 9 weeks, baseline 24): 24, 3
- Tender joint, final ([1]; Patient 4, 9 weeks, baseline 28): 28, 11
- Physician assessment (0-100), final ([1]; Patient 4, 9 weeks, baseline 80): 80, 40
- Patient own assessment (0-100), final ([1]; Patient 4, 9 weeks, baseline 90): 90, 50
- ACR % Response ([1]; Patient 4, 9 wks): 50%
- ACR % Response ([1]; Patient 4, treatment duration 9 weeks): 50%
- Function score (Good <1), final ([1]; Patient 5, 7 weeks, baseline 1.29): 1.29, 0.88
- Morning stiffness, final ([1]; Patient 5, 7 weeks, baseline 2.5): 2.5, ¾
- Swollen joint count assessed with ultrasound, final ([1]; Patient 5, 7 weeks, baseline 10): 10, 2
- Tender joint, final ([1]; Patient 5, 7 weeks, baseline 12): 12, 0
- Physician assessment (0-100), final ([1]; Patient 5, 7 weeks, baseline 70): 70, 20
- Patient own assessment (0-100), final ([1]; Patient 5, 7 weeks, baseline 88, footnote: muscular pain in arms): 88, 88^3
- Power Doppler (inflammatory activity) on ultrasound of shoulder and MCP 4 joints ([1]; Patient 5, after treatment, power Doppler present before (FIG. 2)): no power Doppler
- ACR % Response ([1]; Patient 5, treatment duration 7 weeks): 30%
- Function score (Good <1), final ([1]; Patient 6, 36 weeks, baseline 1.5): 1.5, 0.625
- Morning stiffness, final ([1]; Patient 6, 36 weeks, baseline 2): 2, 0 hrs
- Swollen joint count assessed with ultrasound, final ([1]; Patient 6, 36 weeks, baseline 16): 16, 0
- Tender joint, final ([1]; Patient 6, 36 weeks, baseline 24): 24, 0
- Patient own assessment (0-100), final ([1]; Patient 6, 36 weeks, baseline 60): 60, 7
- Physician assessment (0-100), final ([1]; Patient 6, 36 weeks, baseline 90): 90, 7
- Effusion over the right wrist on ultrasound ([1]; Patient 6, by 3.5 weeks of degarelix, large effusion before (FIG. 4)): much smaller
- ACR % Response ([1]; Patient 6, treatment duration 36 weeks): 80%
- Bone mineral density in hips ([2]; Patient 1, first time in 3.5 years, no osteoporosis therapy (FIG. 9)): improvement
- Bone mineral density in hips ([2]; Patient 2, first time in 4.5 years (FIG. 10)): improvement
- Fasting glucose ([3]; Patient 1, October 2014, 6.6 mmol/L in September 2014): 6.3 mmol/L
- Criteria for metabolic syndrome ([3]; Patient 1, after degarelix, 3 of 5 risk factors before): no longer fulfills the criteria
- HbA1c (4.3-6.1%) ([3]; Patient 1, at 8 months, baseline 6.4%): 5.7%
- Blood pressure ([3]; Patient 1, at 8 months): 118/78
- HbA1c (4.3-6.1%) ([3]; Patient 1, by 2 weeks, baseline 6.4%): 6.1%
- Blood pressure ([3]; Patient 1, by 6 months): 120/71
- HbA1c (4.3-6.1%) ([3]; Patient 4, by 1 month, baseline 6.9%): 6.6%
- HbA1c (4.3-6.1%) ([3]; Patient 4, by 2 months, baseline 6.9%): 6.4%
- Fasting glucose (4.0-6.0) ([3]; Patient 4, by 3 months): 6.6 mmol/L
- Fasting glucose (4.0-6.0) ([3]; Patient 4, by 4 months, normalised): 6.0 mmol/L
- HbA1c (4.3-6.1%) ([3]; Patient 4, by 4 months, baseline 6.9%): 6.2%
- HbA1c (4.3-6.1%) ([3]; Patient 4, by 12 months, normalized, baseline 6.9%): 5.9%
- HDL (1.0-2.7 mmol/L) ([3]; at 4 weeks): 1.19 mmol/L
- HDL (1.0-2.7 mmol/L) ([3]; by 1 week): 0.73 mmol/L
- HDL (1.0-2.7 mmol/L) ([3]; by 2 weeks): 0.75 mmol/L
- HDL (1.0-2.7 mmol/L) ([3]; by 3 weeks, normalized): 1.13 mmol/L
- CRP ([4]; from 87 mg/L): 67 mg/L
- ESR ([4]; from 62 mm): 38 mm
- Disease activity score (DAS) ([4]; at 2 weeks, from 7.3): 6.7
